Laboratory results published in patent US8735414B2 (priority 2009, dated 2014).

Columns and labels:
[1] = system: bicistronic HCV replicon (replicon RNA, GenBank Accession No. AJ242654); experiment: HCV Replicon Assay; type: cell-based; details: Hepatitis C virus, 72 h, read-out: Replicon IC50

SMILES	IC50 [1] [nM]	melting point [°C]
C[C@H](NS(=O)(=O)c1ccc(-c2c(C#N)c3cc(F)c(C4CC4)cc3n2C2CCC2)nc1)C(F)(F)F [compound 630, 6-(3-cyano-1-cyclobutyl-6-cyclopropyl-5-fluoro-1H-indol-2-yl)-N-[(2S)-1,1,1-trifluoropropan-2-yl]pyridine-3-sulfonamide]	< 500	201 to 203
C[C@H](NS(=O)(=O)c1ccc(-c2c(C#N)c3cc(F)c(Br)cc3n2-c2ncccn2)nc1)C(F)(F)F [compound 895, 6-[6-bromo-3-cyano-5-fluoro-1-(pyrimidin-2-yl)-1H-indol-2-yl]-N-[(2S)-1,1,1-trifluoropropan-2-yl]pyridine-3-sulfonamide]	< 500	224 to 226
C[C@@H](NS(=O)(=O)c1ccc(-c2c(C(N)=O)c3cc(F)c(OC(F)F)cc3n2C2CCCC2)nc1)C(F)(F)F [compound 718, 1-cyclopentyl-6-(difluoromethoxy)-5-fluoro-2-(5-{[(2R)-1,1,1-trifluoropropan-2-yl]sulfamoyl}pyridin-2-yl)-1H-indole-3-carboxamide]	< 500	218 to 220
Cc1ccc2c(c1)c(C#N)c(-c1ccc(S(=O)(=O)N[C@@H](C)C(F)(F)F)cn1)n2-c1ncccc1F [compound 844, 6-[3-cyano-1-(3-fluoropyridin-2-yl)-5-methyl-1H-indol-2-yl]-N-[(2S)-1,1,1-trifluoropropan-2-yl]pyridine-3-sulfonamide]	< 500	216 to 220
N#Cc1c(-c2ccc(S(=O)(=O)NC(CF)CF)cn2)n(C2CCCC2)c2cc(OC(F)F)c(F)cc12 [compound 573, 6-[3-cyano-1-cyclopentyl-6-(difluoromethoxy)-5-fluoro-1H-indol-2-yl]-N-(1,3-difluoropropan-2-yl)pyridine-3-sulfonamide]	< 500	190 to 194
CCCn1c(-c2ncc(S(=O)(=O)N[C@@H](C)C(F)(F)F)cn2)c(C#N)c2ccc(OC(F)F)cc21 [compound 400, 2-[3-cyano-6-(difluoromethoxy)-1-propyl-1H-indol-2-yl]-N-[(2S)-1,1,1-trifluoropropan-2-yl]pyrimidine-5-sulfonamide]	< 500	207 to 208
N#Cc1c(-c2ncc(S(=O)(=O)NC(CF)CF)cn2)n(C2CCCCC2)c2cc(OC(F)F)ccc12 [compound 179, 2-[3-cyano-1-cyclohexyl-6-(difluoromethoxy)-1H-indol-2-yl]-N-(1,3-difluoropropan-2-yl)pyrimidine-5-sulfonamide]	< 500	174 to 176
CCn1c(-c2ccc(NS(=O)(=O)C3CC3)cn2)c(C#N)c2ccc(OC(C)C)cc21 [compound 285, N-{6-[3-cyano-1-ethyl-6-(propan-2-yloxy)-1H-indol-2-yl]pyridin-3-yl}cyclopropanesulfonamide]	500 to 2000	180 to 185
Cc1ccc2c(c1)c(C#N)c(-c1ccc(S(=O)(=O)N[C@@H](C)C(F)(F)F)cn1)n2CC1CC1 [compound 372, 6-[3-cyano-1-(cyclopropylmethyl)-5-methyl-1H-indol-2-yl]-N-[(2S)-1,1,1-trifluoropropan-2-yl]pyridine-3-sulfonamide]	< 500	175 to 180
C[C@H](NS(=O)(=O)c1ccc(-c2c(C#N)c3cc(F)ccc3n2-c2ccccn2)nc1)C(F)(F)F [compound 386, 6-[3-cyano-5-fluoro-1-(pyridin-2-yl)-1H-indol-2-yl]-N-[(2S)-1,1,1-trifluoropropan-2-yl]pyridine-3-sulfonamide]	< 500	210 to 212
CCn1c(-c2ccc(N(CC#N)S(=O)(=O)C3CC3)nc2)c(C#N)c2ccc(OC(C)C)cc21 [compound 294, N-{5-[3-cyano-1-ethyl-6-(propan-2-yloxy)-1H-indol-2-yl]pyridin-2-yl}-N-(cyanomethyl)cyclopropanesulfonamide]	500 to 2000	236 to 238
N#Cc1c(-c2ccc(S(=O)(=O)NC(CF)CF)cn2)n(C2CCCCC2)c2cc(OC(F)F)ccc12 [compound 100, 6-[3-cyano-1-cyclohexyl-6-(difluoromethoxy)-1H-indol-2-yl]-N-(1,3-difluoropropan-2-yl)pyridine-3-sulfonamide]	< 500	175 to 178
Cc1cc2c(cc1F)c(C(N)=O)c(-c1ccc(S(=O)(=O)N[C@@H](C)C(F)(F)F)cn1)n2C1CCC1 [compound 737, 1-cyclobutyl-5-fluoro-6-methyl-2-(5-{[(2S)-1,1,1-trifluoropropan-2-yl]sulfamoyl}pyridin-2-yl)-1H-indole-3-carboxamide]	< 500	190 to 194
N#Cc1c(-c2ccc(S(=O)(=O)NC(CF)CF)cn2)n(CC2CC2)c2cc(F)ccc12 [compound 57, 6-[3-cyano-1-(cyclopropylmethyl)-6-fluoro-1H-indol-2-yl]-N-(1,3-difluoropropan-2-yl)pyridine-3-sulfonamide]	< 500	188 to 190
Cc1ccc2c(c1)c(C#N)c(-c1ncc(S(=O)(=O)N[C@@H](C)C(F)(F)F)cn1)n2C(C)C [compound 566, 2-[3-cyano-5-methyl-1-(propan-2-yl)-1H-indol-2-yl]-N-[(2S)-1,1,1-trifluoropropan-2-yl]pyrimidine-5-sulfonamide]	500 to 2000	195 to 198
CC(C)(NS(=O)(=O)c1ccc(-c2c(C(N)=O)c3cc(F)c(C4CC4)cc3n2C2CCCC2)nc1)C(F)(F)F [compound 850, 1-cyclopentyl-6-cyclopropyl-5-fluoro-2-{5-[(1,1,1-trifluoro-2-methylpropan-2-yl)sulfamoyl]pyridin-2-yl}-1H-indole-3-carboxamide]	< 500	236 to 237
C[C@@H](NS(=O)(=O)c1ccc(-c2c(C#N)c3cc(F)c(OC(F)F)cc3n2C2CCC2)nc1)C(F)(F)F [compound 648, 6-[3-cyano-1-cyclobutyl-6-(difluoromethoxy)-5-fluoro-1H-indol-2-yl]-N-[(2R)-1,1,1-trifluoropropan-2-yl]pyridine-3-sulfonamide]	< 500	173 to 175
C[C@H](NS(=O)(=O)c1cnc(-c2c(C#N)c3ccc(C4CC4)cc3n2C2CCCC2)nc1)C(F)(F)F [compound 401, 2-(3-cyano-1-cyclopentyl-6-cyclopropyl-1H-indol-2-yl)-N-[(2S)-1,1,1-trifluoropropan-2-yl]pyrimidine-5-sulfonamide]	< 500	238 to 239
C[C@H](NS(=O)(=O)c1ccc(-c2c(C#N)c3ccc(C4CC4)cc3n2C2CCC2)nc1)C1CC1 [compound 236, 6-(3-cyano-1-cyclobutyl-6-cyclopropyl-1H-indol-2-yl)-N-[(1S)-1-cyclopropylethyl]pyridine-3-sulfonamide]	< 500	170 to 176
CC(C)c1ccc2c(C#N)c(-c3ccc(S(=O)(=O)NC(CF)CF)cn3)n(C(C)C)c2c1 [compound 456, 6-[3-cyano-1,6-di(propan-2-yl)-1H-indol-2-yl]-N-(1,3-difluoropropan-2-yl)pyridine-3-sulfonamide]	< 500	165 to 173
